{"source": "patent US8592370B2", "about": "“Combination of insulin with triazine derivatives” (Poxel S.A.S., priority 2008, dated 2013)", "key": {"[1]": {"tested_on": "hyperglycemic and hypoinsulinemic Type 1 rat models (Streptozotocin)", "test": "Fasting plasma glucose in STZ Type 1 rat model, insulin pellets with or without EMD", "assay_type": "in vivo", "method": "(§1) The study was performed in hyperglycemic and hypoinsulinemic Type 1 rat models obtained by injection of high dose of Streptozotocin (STZ). Male Wistar rats (Charles River) were treated with STZ at 62.5 mg/kg IP. Rats were screened for baseline glucose levels three days after STZ injection. The animals with glucose levels below 35-40 mmol/l were excluded from this study. After selection, pellets of insulin were subcutaneously implanted (1+½ implants) at day 3. The release rate for each implant was 2 U per 24 h. In these experimental conditions each rat was infused with 3 U per 24 h of insulin for 40 days approximately (Limplant LINSHIN CANADA). 5,6-dihydro-4-dimethylamino-2-imino-6-methyl-1,3,5-triazine was orally administered at two doses, 75 and 150 mg/kg b.i.d., 10 days after induction of diabetes. Further experimental details are known to the skilled artisan, e.g. by the disclosure of WO 2003/092726, and can be easily modified as a matter of routine."}, "[2]": {"tested_on": "hyperglycemic and hypoinsulinemic Type 1 rat models (Streptozotocin)", "test": "Oral glucose tolerance test (OGTT), plasma glucose after 36 days of treatment", "assay_type": "in vivo", "conditions": "insulin alone", "method": "as §1\nThe determination how quickly administered glucose is cleared form the blood was conducted by means of a glucose tolerance test. The glucose was orally given; so the common test was technically an oral glucose tolerance test (OGTT), which is well-known to the skilled artisan. The laboratory animal was fasting for 18 hours before it was administered a glucose solution. Blood was drawn at intervals (cf. Table 3) for measurement of glucose (blood sugar), and additionally insulin levels were measured to detect the degree of IR or deficiency, respectively. For diabetes screening, the most important sample is the 2 hour sample, whose blood sugar value is enhanced at mammals with diminished insulin secretion or IR."}}}
{"compound": "control + insulin: subcutaneously implanted insulin pellets releasing 3 U per 24 h (Limplant LINSHIN CANADA); insulin alone group", "values": [{"measurement": "Fasting plasma glucose", "setting": "[1]; insulin pellets 3 U per 24 h alone, day 0 (before treatment)", "value": 33.20, "unit": "mmol/L"}, {"measurement": "Fasting plasma glucose", "setting": "[1]; insulin pellets 3 U per 24 h alone, day 8", "value": 17.22, "unit": "mmol/L"}, {"measurement": "Fasting plasma glucose", "setting": "[1]; insulin pellets 3 U per 24 h alone, day 15", "value": 11.25, "unit": "mmol/L"}, {"measurement": "Fasting plasma glucose", "setting": "[1]; insulin pellets 3 U per 24 h alone, day 22", "value": 16.66, "unit": "mmol/L"}, {"measurement": "Fasting plasma glucose", "setting": "[1]; insulin pellets 3 U per 24 h alone, day 36", "value": 21.46, "unit": "mmol/L"}, {"measurement": "Fasting plasma glucose", "setting": "[1]; insulin pellets 3 U per 24 h alone, day 36, listed as insulin pellets", "value": "21.46 ± 3.1", "unit": "mmol/L"}, {"measurement": "OGTT plasma glucose", "setting": "[2]; 0 min", "value": 21.46, "unit": "mmol/L"}, {"measurement": "OGTT plasma glucose", "setting": "[2]; 10 min", "value": 22.73, "unit": "mmol/L"}, {"measurement": "OGTT plasma glucose", "setting": "[2]; 20 min", "value": 26.98, "unit": "mmol/L"}, {"measurement": "OGTT plasma glucose", "setting": "[2]; 30 min", "value": 27.83, "unit": "mmol/L"}, {"measurement": "OGTT plasma glucose", "setting": "[2]; 45 min", "value": 28.04, "unit": "mmol/L"}, {"measurement": "OGTT plasma glucose", "setting": "[2]; 60 min", "value": 25.59, "unit": "mmol/L"}, {"measurement": "OGTT plasma glucose", "setting": "[2]; 90 min", "value": 20.35, "unit": "mmol/L"}, {"measurement": "OGTT plasma glucose", "setting": "[2]; 120 min", "value": 16.91, "unit": "mmol/L"}]}
{"compound": "CC1NC(=N)N=C(N(C)C)N1", "note": "(stereo not shown) [EMD, 5,6-dihydro-4-dimethylamino-2-imino-6-methyl-1,3,5-triazine]", "values": [{"measurement": "Fasting plasma glucose", "setting": "[1]; EMD 75 mg/kg b.i.d. oral + insulin pellets 3 U per 24 h, day 36", "value": "18.86 ± 2.77", "unit": "mmol/L"}, {"measurement": "Fasting plasma glucose", "setting": "[1]; EMD 150 mg/kg b.i.d. oral + insulin pellets 3 U per 24 h, day 36", "value": "14.85 ± 2.03", "unit": "mmol/L"}]}
